Experiment [1] deals with synthesis of LTB4 in human whole blood. The experiment can be described thus: Human whole blood assay (calcimycin-stimulated LTB4 synthesis). It is filed as cell-based. The settings on record: Homo sapiens; read-out: Human Whole Blood LTB4 Assay for FLAP (IC50 nM). Here is the method: Compounds are additionally tested in a human whole blood assay to determine their ability to inhibit the synthesis of LTB4 in a cellular system. Compounds are combined with heparinized human whole blood and incubated for 15 minutes at 37° C. Calcimycin (20 μM final, prepared in phosphate-buffered saline, pH 7.4) is then added and the mixture is incubated for another 30 minutes at 37° C. The samples are centrifuged for 5 min at low speed (1500×g) and the plasma layer is removed. Plasma LTB4 concentrations are then measured using an antibody-based homogenous time-resolved fluorescence method (CisBio, Bedford, Mass.).

The target of experiment [2] is T1, recombinant human FLAP protein (Homo sapiens, UniProt P20292).
T1 construct: made in house; host or cells: Sf9 insect cells (membrane fraction, 100,000 x g pellet)
T1 sequence (P20292 1-161): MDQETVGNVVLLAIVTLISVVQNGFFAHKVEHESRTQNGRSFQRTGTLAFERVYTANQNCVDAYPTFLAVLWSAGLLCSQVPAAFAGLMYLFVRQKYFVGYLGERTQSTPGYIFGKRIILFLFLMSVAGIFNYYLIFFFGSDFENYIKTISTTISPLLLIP
The experiment in a line: FLAP binding assay (Scintillation Proximity Assay, displacement of [125I]L-691,831). The following applies: read-out: Human FLAP SPA Binding (IC50 nM). Here is the method:
Compounds are assessed for the ability to bind to FLAP in a binding assay that measures compound-specific displacement of an iodinated (^125I) FLAP inhibitor via a Scintillation Proximity Assay format (adapted from S. Charleson et al., Mol. Pharmacol., 1992, 41, 873-879).
Cell pellets produced from sf9 insect cells expressing recombinant human FLAP protein are resuspended in buffer A [15 mM Tris-HCl (pH 7.5), 2 mM MgCl2, 0.3 mM EDTA, 1 mM PMSF]. The cells are lysed with a Dounce homogenizer and the material is centrifuged at 10,000×g for 10 minutes. The supernatant is then collected and centrifuged at 100,000×g for 60 minutes. To prepare membrane protein for an assay, an aliquot of the 100,000×g pellet is resuspended in 1 ml of buffer A, Dounce homogenized, and finally subjected to polytron mixing (30 seconds). Membrane protein (25 μl, 5 μg) is mixed with WGA SPA beads (Amersham) and stirred for 1 h. To an assay plate (Perkin Elmer FlexiPlate) is added 25 μl of test compound prepared in Binding buffer [100 mM Tris (pH 7.5), 140 mM NaCl, 5% glycerol, 2 mM EDTA, 0.5 mM TCEP, 0.05% Tween 20], 25 μl of [^125I]L-691,831 (an iodinated analog of MK-591, Charleson et al. Mol. Pharmacol., 41, 873-879, 1992) and finally 50 μl of the bead/protein mixture. (final concentrations: beads, 200 μg/well; protein, 5 μg/well; [^125I] probe, 0.08 nM/well (17 nCi/well). The plates are shaken for 2 h before reading on a Microbeta plate reader. Non-specific binding is determined by the addition of 10 μM cold L-691,831 compound.

Where only a bound is given, the exact number is not on record here.

Turning to `CN(C)CCn1cc(-c2cc([C@@](C)(c3ccc(-c4cnc(N)nc4)cc3)C3CC3)no2)cn1` [Example 26, 5-{4-[(1R)-1-cyclopropyl-1-(5-{1-[2-(dimethylamino)ethyl]-1H-pyrazol-4-yl}-1,2-oxazol-3-yl)ethyl]phenyl}pyrimidin-2-amine], the concentration for half-maximal inhibition (IC50) in experiment [1] was 39 nM; in experiment [2], 4.6 nM.

On to `CC(C)C(C)(c1ccc(-c2cnc(N)nc2)cc1)c1cn(CCN2CCN(C)CC2)c2ccccc12` (stereo not shown) [Example 52, 5-[4-(3-methyl-2-{1-[2-(4-methylpiperazin-1-yl)ethyl]-1H-indol-3-yl}butan-2-yl)phenyl]pyrimidin-2-amine], for which the half-maximal inhibitory concentration (IC50) in experiment [1] came to 2200 nM; in experiment [2], 3.1 nM.

Turning to `CC(C)C(C)(c1ccc(-c2cnc(N)nc2)cc1)c1c[nH]c2ccc(F)cc12` (stereo not shown) [Example 63, 5-{4-[2-(5-fluoro-1H-indol-3-yl)-3-methylbutan-2-yl]phenyl}pyrimidin-2-amine], the half-inhibitory concentration (IC50) is 440 nM in experiment [1] and 3 nM in experiment [2].

As for `CC(C)C(C)(c1ccc(-c2cnc(N)nc2)cc1)c1cn(C)c2ccc(F)cc12` (stereo not shown) [Example 31, 5-{4-[2-(5-fluoro-1-methyl-1H-indol-3-yl)-3-methylbutan-2-yl]phenyl}pyrimidin-2-amine], the IC50 in experiment [1] is 1200 nM; in experiment [2] it was 7.1 nM.

For the molecule `Cn1cc(-c2coc([C@@](C)(c3ccc(-c4cnc(N)nc4)cc3)C3CC3)n2)cn1` [Example 185, 5-[4-[(1R)-1-cyclopropyl-1-[4-(1-methylpyrazol-4-yl)oxazol-2-yl]ethyl]phenyl]pyrimidin-2-amine], the results for the IC50 in experiment [1] and in experiment [2] were 54 nM and 3.3 nM, respectively.

For the molecule `COC(=O)c1[nH]cc(Br)c1C1(c2ccc(-c3cnc(N)nc3)cc2)CCC1` [Example 174, methyl 3-{1-[4-(2-aminopyrimidin-5-yl)phenyl]cyclobutyl}-4-bromo-1H-pyrrole-2-carboxylate], the IC50 in experiment [1] came to 650 nM; in experiment [2], 17 nM.

In the case of `CC(C)[C@@](C)(c1ccc(-c2cnc(N)nc2)nc1)c1cc(-c2cnn(C)c2)on1` [Example 192, 5-(5-{(2S)-3-methyl-2-[5-(1-methyl-1H-pyrazol-4-yl)-1,2-oxazol-3-yl]butan-2-yl}pyridin-2-yl)pyrimidin-2-amine], the results for the half-maximal inhibitory concentration (IC50) in experiment [1] and in experiment [2] were 1900 nM and 210 nM, respectively.

With `CC(C)C(C)(c1ccc(-c2cnc(N)nc2)cc1)c1c[nH]c2cc(C(=O)N3CCOCC3)ccc12` (stereo not shown) [Example 77, (3-{2-[4-(2-aminopyrimidin-5-yl)phenyl]-3-methylbutan-2-yl}-1H-indol-6-yl)(morpholin-4-yl)methanone], the IC50 in experiment [1] is 640 nM; in experiment [2], 1.7 nM.

Turning to `NC(=O)c1cccc2c(C3(c4ccc(-c5cnc(N)nc5)cc4)CCC3)c[nH]c12` [Example 117, 3-{1-[4-(2-aminopyrimidin-5-yl)phenyl]cyclobutyl}-1H-indole-7-carboxamide], the IC50 was found to be 30 nM in experiment [1] and 1.1 nM in experiment [2].

In the case of `Cn1cc(-c2coc(C3(c4ccc(-c5cnc(N)nc5)cc4)CCC3)n2)cn1` [Example 164, 5-(4-{1-[4-(1-methyl-1H-pyrazol-4-yl)-1,3-oxazol-2-yl]cyclobutyl}phenyl)pyrimidin-2-amine], the IC50 in experiment [1] was found to be 93 nM; in experiment [2], 3.7 nM.

Take `Nc1ncc(-c2ccc(C3(c4nnc(-c5cccnc5)o4)CCC3)cc2)cn1` [Example 94, 5-(4-{1-[5-(pyridin-3-yl)-1,3,4-oxadiazol-2-yl]cyclobutyl}phenyl)pyrimidin-2-amine]: the IC50 in experiment [1] was determined as 2800 nM; in experiment [2] it was 120 nM.

For `CC(C)C(C)(c1ccc(-c2cnc(N)nc2)cc1)c1c[nH]c2cc(OC3CCOC3)ccc12` (stereo not shown) [Example 54, 5-(4-{3-methyl-2-[6-(tetrahydrofuran-3-yloxy)-1H-indol-3-yl]butan-2-yl}phenyl)pyrimidin-2-amine], the IC50 in experiment [1] is 840 nM; in experiment [2] it was 8.3 nM.

As for `COc1cncc(-c2ccc(C(c3ncc(-c4cnc(N)nc4)s3)C(C)C)cc2)c1` (stereo not shown) [Example 100], the IC50 was 2100 nM in experiment [1] and 18 nM in experiment [2].

On to `Cc1ccc(-c2cnc(C3(c4ccc(-c5cnc(N)nc5)cc4)CCC3)[nH]2)cn1` [Example 14, 5-(4-{1-[5-(6-methylpyridin-3-yl)-1H-imidazol-2-yl]cyclobutyl}phenyl)pyrimidin-2-amine], for which the IC50 is above 5000 nM in experiment [1] and 30 nM in experiment [2].

In the case of `CC(C)C(C)(c1ccc(-c2cnc(N)nc2)cc1)c1c[nH]c2c(-c3nnc(N)o3)cccc12` (stereo not shown) [Example 76, 5-(4-{2-[7-(5-amino-1,3,4-oxadiazol-2-yl)-1H-indol-3-yl]-3-methylbutan-2-yl}phenyl)pyrimidin-2-amine], the IC50 in experiment [1] is 250 nM; in experiment [2] it was 1.1 nM.

For the molecule `CC(C)C(C)(c1ccc(-c2cnc(N)nc2)cc1)c1cn(C)c2ccccc12` (stereo not shown) [Example 32, 5-{4-[3-methyl-2-(1-methyl-1H-indol-3-yl)butan-2-yl]phenyl}pyrimidin-2-amine], the IC50 in experiment [1] stood at 650 nM; in experiment [2], 3.3 nM.

For `COC(=O)c1cc(-c2ccc(F)nc2)c(C2(c3ccc(-c4cnc(N)nc4)cc3)CCC2)[nH]1` [Example 179, methyl 5-{1-[4-(2-aminopyrimidin-5-yl)phenyl]cyclobutyl}-4-(6-fluoropyridin-3-yl)-1H-pyrrole-2-carboxylate], the IC50 in experiment [1] turned out to be 4400 nM; in experiment [2] it was 200 nM.

In the case of `CN(C)C(=O)Cn1cc(-c2coc(C(C)(c3ccc(-c4cnc(N)nc4)cc3)C3CC3)n2)cn1` (stereo not shown) [Example 194, 2-[4-(2-{1-[4-(2-aminopyrimidin-5-yl)phenyl]-1-cyclopropylethyl}-1,3-oxazol-4-yl)-1H-pyrazol-1-yl]-N-dimethylacetamide], the IC50 in experiment [1] was found to be 560 nM; in experiment [2] it was 40 nM.

For the molecule `Cn1cc(C2(c3ccc(-c4cnc(N)nc4)cc3)CCC2)c2cccnc21` [Example 95, 5-{4-[1-(1-methyl-1H-pyrrolo[2,3-b]pyridin-3-yl)cyclobutyl]phenyl}pyrimidin-2-amine], the IC50 stood at 960 nM in experiment [1] and 5 nM in experiment [2].

In the case of `Nc1ncc(-c2ccc(C3(c4c[nH]c5cnccc45)CCC3)cc2)cn1` [Example 109, 5-{4-[1-(1H-pyrrolo[2,3-c]pyridin-3-yl)cyclobutyl]phenyl}pyrimidin-2-amine], the IC50 in experiment [1] was 71 nM; in experiment [2] it was 1.3 nM.

On to `Cc1ccc(-c2cc(C3(c4ccc(-c5cnc(N)nc5)cc4)CCC3)n(C)n2)cn1` [Example 19, 5-(4-{1-[1-methyl-3-(6-methylpyridin-3-yl)-1H-pyrazol-5-yl]cyclobutyl}phenyl)pyrimidin-2-amine], for which the IC50 in experiment [1] was above 5000 nM; in experiment [2], 510 nM.

On to `Cn1cc(-c2coc(C(C)(c3ccc(-c4cnc(N)nc4)nc3)C3CC3)n2)cn1` (stereo not shown) [Example 206, 5-(5-{1-Cyclopropyl-1-[4-(1-methyl-1H-pyrazol-4-yl)-oxazol-2-yl]-ethyl}-pyridin-2-yl)-pyrimidin-2-ylamine], for which the IC50 worked out at 930 nM in experiment [1] and 180 nM in experiment [2].

With `Nc1ncc(-c2ccc(C3(c4nc5ccccc5[nH]4)CCOCC3)cc2)cn1` [Example 75, 5-{4-[4-(1H-benzimidazol-2-yl)tetrahydro-2H-pyran-4-yl]phenyl}pyrimidin-2-amine], the results for the IC50 in experiment [1] and in experiment [2] were above 5000 nM and 380 nM, respectively.

As to `Nc1ncc(-c2ccc(C3(c4c[nH]c5c(C(=O)N6CC[C@@H](O)C6)cccc45)CCC3)cc2)cn1` [Example 134, (3-{1-[4-(2-aminopyrimidin-5-yl)phenyl]cyclobutyl}-1H-indol-7-yl)[(3R)-3-hydroxypyrrolidin-1-yl]methanone], the figures for the IC50 in experiment [1] and in experiment [2] were 270 nM and 1.8 nM, respectively.

`CC(C)(O)Cn1cc(-c2coc(C(C)(c3ccc(-c4cnc(N)nc4)nc3)C3CC3)n2)cn1` (stereo not shown) [Example 209, 1-[4-(2-{1-[6-(2-Amino-pyrimidin-5-yl)-pyridin-3-yl]-1-cyclopropyl-ethyl}-oxazol-4-yl)-pyrazol-1-yl]-2-methyl-propan-2-ol]: the half-maximal inhibitory concentration (IC50) was 560 nM in experiment [1] and 300 nM in experiment [2].

Turning to `COc1cncc(-c2ccc(C(c3ncc(Br)s3)C(C)C)cc2)c1` (stereo not shown) [Example 24, 5-bromo-2-[1-[4-(5-methoxy-3-pyridyl)phenyl]-2-methyl-propyl]thiazole], the results for the IC50 in experiment [1] and in experiment [2] were above 5000 nM and 890 nM, respectively.

A word on the IC50: it is the concentration needed to halve the response being measured.

(Values after patent US9174980B2, “Heterocyclic compounds as inhibitors of leukotriene production” (Boehringer Ingelheim International GmbH, priority 2012, dated 2015).)
